From article PMC3578785, “Improved BM212 MmpL3 Inhibitor Analogue Shows Efficacy in Acute Murine Model of Tuberculosis Infection” (PLoS ONE, 2013)

Legend:
[1] = tested on: M. bovis BCG and mmpL3 mutants M1, M8; format: cell-based
[2] = tested on: M. tuberculosis H37Rv and mmpL3 mutants DR1-DR9; format: cell-based

Row | SMILES | MIC for M. bovis BCG mutants resistant to compound 8 [1] [µM] | MIC for M. tuberculosis isolates resistant to compound 8 [2] [µM] | MIC for M. tuberculosis mutants with amino acid change V681I [2] [µM]
1 | CCc1ccc(-c2cc(CN3CCOCC3)c(C)n2-c2ccc(F)cc2)cc1 [Compound 8, 2-Methyl-3-[(morpholin-4-yl)-methyl]-5-[4-(ethyl)phenyl]-1-[4-(fluoro)phenyl]-1H-pyrrole] | 0.63 | 0.66 | –
2 | Cc1ccc(-c2cc(CN3CCOCC3)c(C)n2-c2ccc(F)cc2)cc1 [Compound 5, 2-Methyl-3-[(morpholin-4-yl)-methyl]-5-[4-(methyl)phenyl]-1-[4-(fluoro)phenyl]-1H-pyrrole] | – | – | 5.4
